Experimental data: paper PMC8187944, “Discovery of Potent EGFR Inhibitors With 6-Arylureido-4-anilinoquinazoline Derivatives” (Frontiers in Pharmacology, 2021)

Columns and labels:
EGFR = target: T1, EGFR (Homo sapiens, UniProt P00533); assay: EGFR kinase inhibition, ADP-Glo assay; format: biochemical
T1 construct: 2 μl (50 ng/ml) of EGFR kinase
Method: The EGFR kinase inhibition activities of the target compounds were evaluated by the ADP-Glo™ assay. The ADP-Glo™ kinase detection kit is a luminescence kinase detection approach that detects the amount of ADP produced by the kinase reaction. After ADP is converted into ATP, ATP can be used as the substrate of the luciferase-catalyzed reaction to generate an optical signal, which is positively correlated with kinase activity. […] The above-prepared systems were sealed and incubated at room temperature for 2 h, and 5 μl of ADP-GLO was added to terminate the kinase reaction. Then, the culture plate was sealed and incubated in a thermostatic oscillator for 40 min to fully consume the remaining ATP. The luciferase/luciferin reaction was adopted to determine the newly generated ATP level.

Aqueous solubility = format: physicochemical; settings: in words
Abl = Abl (Homo sapiens, UniProt P00519); assay: Kinase spectrum assay (ADP-Glo); settings: remaining enzyme activity at 1 μm compound
Csk = Csk (Homo sapiens, UniProt P41240); assay: Kinase spectrum assay (ADP-Glo); settings: remaining enzyme activity at 1 μm compound
FAK = FAK (Homo sapiens, UniProt Q05397); assay: Kinase spectrum assay (ADP-Glo); settings: remaining enzyme activity at 1 μm compound
FGFR2 = FGFR2 (Homo sapiens, UniProt P21802); assay: Kinase spectrum assay (ADP-Glo); settings: remaining enzyme activity at 1 μm compound
HER4 = HER4 (Homo sapiens, UniProt Q15303); assay: Kinase spectrum assay (ADP-Glo); settings: remaining enzyme activity at 1 μm compound
LCK = LCK (Homo sapiens, UniProt P06239); assay: Kinase spectrum assay (ADP-Glo); settings: remaining enzyme activity at 1 μm compound
SRC = SRC (Homo sapiens, UniProt P12931); assay: Kinase spectrum assay (ADP-Glo); settings: remaining enzyme activity at 1 μm compound
Syk = Syk (Homo sapiens, UniProt P43405); assay: Kinase spectrum assay (ADP-Glo); settings: remaining enzyme activity at 1 μm compound
TRKA = TRKA (Homo sapiens, UniProt P04629); assay: Kinase spectrum assay (ADP-Glo); settings: remaining enzyme activity at 1 μm compound
FLT3 = FLT3 (Homo sapiens, UniProt P36888); assay: Kinase spectrum assay (ADP-Glo); settings: remaining enzyme activity at 1 μm compound
KDR = KDR (Homo sapiens, UniProt P35968); assay: Kinase spectrum assay (ADP-Glo); settings: remaining enzyme activity at 1 μm compound
JAK3 = JAK3 (Homo sapiens, UniProt P52333); assay: Kinase spectrum assay (ADP-Glo); settings: remaining enzyme activity at 1 μm compound
NIK = NIK (Homo sapiens, UniProt Q99558); assay: Kinase spectrum assay (ADP-Glo); settings: remaining enzyme activity at 1 μm compound
ASK1 = ASK1 (Homo sapiens, UniProt Q99683); assay: Kinase spectrum assay (ADP-Glo); settings: remaining enzyme activity at 1 μm compound
Sequence of ASK1 (Q99683 whole entry): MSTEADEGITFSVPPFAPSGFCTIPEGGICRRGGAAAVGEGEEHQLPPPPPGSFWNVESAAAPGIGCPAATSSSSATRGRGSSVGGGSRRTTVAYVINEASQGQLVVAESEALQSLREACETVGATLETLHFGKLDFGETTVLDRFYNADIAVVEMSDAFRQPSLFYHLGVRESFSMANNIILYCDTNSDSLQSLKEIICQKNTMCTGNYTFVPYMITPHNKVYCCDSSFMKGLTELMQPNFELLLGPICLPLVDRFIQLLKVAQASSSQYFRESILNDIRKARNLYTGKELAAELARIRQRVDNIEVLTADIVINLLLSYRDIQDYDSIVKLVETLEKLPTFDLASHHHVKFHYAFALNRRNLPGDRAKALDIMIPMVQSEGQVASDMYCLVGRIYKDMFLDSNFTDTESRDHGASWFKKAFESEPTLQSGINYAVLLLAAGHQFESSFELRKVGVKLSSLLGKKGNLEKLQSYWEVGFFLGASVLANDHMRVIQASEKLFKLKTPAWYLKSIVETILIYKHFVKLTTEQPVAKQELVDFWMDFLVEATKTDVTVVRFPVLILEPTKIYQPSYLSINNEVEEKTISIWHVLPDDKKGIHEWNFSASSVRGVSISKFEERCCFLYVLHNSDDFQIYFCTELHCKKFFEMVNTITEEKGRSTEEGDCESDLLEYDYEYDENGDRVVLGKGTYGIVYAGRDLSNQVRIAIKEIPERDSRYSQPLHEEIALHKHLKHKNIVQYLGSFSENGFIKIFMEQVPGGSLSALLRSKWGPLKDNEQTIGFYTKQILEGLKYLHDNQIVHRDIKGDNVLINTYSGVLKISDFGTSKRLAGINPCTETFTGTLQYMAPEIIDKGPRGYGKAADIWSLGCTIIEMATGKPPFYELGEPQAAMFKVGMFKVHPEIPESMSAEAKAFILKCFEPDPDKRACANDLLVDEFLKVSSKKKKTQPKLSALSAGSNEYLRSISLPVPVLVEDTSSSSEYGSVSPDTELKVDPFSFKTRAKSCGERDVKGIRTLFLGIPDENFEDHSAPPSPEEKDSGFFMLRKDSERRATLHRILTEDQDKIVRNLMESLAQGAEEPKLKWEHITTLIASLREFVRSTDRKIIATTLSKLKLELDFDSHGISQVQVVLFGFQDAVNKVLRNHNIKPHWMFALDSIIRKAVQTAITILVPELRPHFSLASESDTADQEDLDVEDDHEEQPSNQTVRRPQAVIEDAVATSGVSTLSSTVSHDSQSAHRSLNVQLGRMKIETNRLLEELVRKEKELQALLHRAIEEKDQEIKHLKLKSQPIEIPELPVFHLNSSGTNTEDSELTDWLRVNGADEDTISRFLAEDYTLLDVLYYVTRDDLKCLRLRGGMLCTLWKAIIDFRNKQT

PKCa = PKCa (Homo sapiens, UniProt P17252); assay: Kinase spectrum assay (ADP-Glo); settings: remaining enzyme activity at 1 μm compound
ROCK1 = ROCK1 (Homo sapiens, UniProt Q13464); assay: Kinase spectrum assay (ADP-Glo); settings: remaining enzyme activity at 1 μm compound
Sequence of ROCK1 (Q13464 whole entry): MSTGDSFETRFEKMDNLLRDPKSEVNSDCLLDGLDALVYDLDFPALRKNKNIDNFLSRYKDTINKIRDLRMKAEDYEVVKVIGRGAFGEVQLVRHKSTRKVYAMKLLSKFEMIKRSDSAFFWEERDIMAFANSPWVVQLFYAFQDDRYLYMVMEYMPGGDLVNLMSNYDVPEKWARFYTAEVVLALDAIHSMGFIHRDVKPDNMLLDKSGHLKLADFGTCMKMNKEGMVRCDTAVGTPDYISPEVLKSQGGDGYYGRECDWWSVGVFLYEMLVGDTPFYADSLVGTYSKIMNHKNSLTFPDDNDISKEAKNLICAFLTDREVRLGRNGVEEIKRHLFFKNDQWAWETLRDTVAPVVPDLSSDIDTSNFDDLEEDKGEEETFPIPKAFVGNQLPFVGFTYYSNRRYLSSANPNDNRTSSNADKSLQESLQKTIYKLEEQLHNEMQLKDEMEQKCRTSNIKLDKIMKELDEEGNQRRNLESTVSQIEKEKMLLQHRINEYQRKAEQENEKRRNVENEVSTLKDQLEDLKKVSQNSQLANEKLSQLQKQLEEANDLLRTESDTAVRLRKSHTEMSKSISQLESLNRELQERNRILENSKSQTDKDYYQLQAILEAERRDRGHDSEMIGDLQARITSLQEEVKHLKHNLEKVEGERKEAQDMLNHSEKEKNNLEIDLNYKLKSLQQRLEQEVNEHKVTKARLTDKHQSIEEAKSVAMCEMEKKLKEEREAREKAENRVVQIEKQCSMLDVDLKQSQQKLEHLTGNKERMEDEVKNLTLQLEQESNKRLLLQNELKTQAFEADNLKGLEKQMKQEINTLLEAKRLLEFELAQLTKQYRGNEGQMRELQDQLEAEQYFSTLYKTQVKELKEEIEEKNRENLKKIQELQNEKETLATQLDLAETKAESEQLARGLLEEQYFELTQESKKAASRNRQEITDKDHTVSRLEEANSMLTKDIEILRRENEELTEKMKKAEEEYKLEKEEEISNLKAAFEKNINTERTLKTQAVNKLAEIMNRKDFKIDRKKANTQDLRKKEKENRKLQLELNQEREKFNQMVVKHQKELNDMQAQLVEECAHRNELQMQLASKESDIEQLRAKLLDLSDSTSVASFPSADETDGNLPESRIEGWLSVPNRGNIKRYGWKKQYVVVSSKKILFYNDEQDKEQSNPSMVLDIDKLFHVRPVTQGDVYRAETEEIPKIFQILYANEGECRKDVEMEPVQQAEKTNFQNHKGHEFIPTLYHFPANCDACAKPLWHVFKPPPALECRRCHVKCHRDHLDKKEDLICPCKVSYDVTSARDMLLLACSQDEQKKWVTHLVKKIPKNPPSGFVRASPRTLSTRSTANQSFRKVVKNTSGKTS

PDK1 = PDK1 (Homo sapiens, UniProt O15530); assay: Kinase spectrum assay (ADP-Glo); settings: remaining enzyme activity at 1 μm compound
PKACα = PKACα (Homo sapiens, UniProt P17612); assay: Kinase spectrum assay (ADP-Glo); settings: remaining enzyme activity at 1 μm compound
Chk1 = Chk1 (Homo sapiens, UniProt O14757); assay: Kinase spectrum assay (ADP-Glo); settings: remaining enzyme activity at 1 μm compound
MAPKAPK2 = MAPKAPK2 (Homo sapiens, UniProt P49137); assay: Kinase spectrum assay (ADP-Glo); settings: remaining enzyme activity at 1 μm compound
MELK = MELK (Homo sapiens, UniProt Q14680); assay: Kinase spectrum assay (ADP-Glo); settings: remaining enzyme activity at 1 μm compound
CAMK2α = CAMK2α (Homo sapiens, UniProt Q9UQM7); assay: Kinase spectrum assay (ADP-Glo); settings: remaining enzyme activity at 1 μm compound
Sequence of CAMK2α (Q9UQM7 whole entry): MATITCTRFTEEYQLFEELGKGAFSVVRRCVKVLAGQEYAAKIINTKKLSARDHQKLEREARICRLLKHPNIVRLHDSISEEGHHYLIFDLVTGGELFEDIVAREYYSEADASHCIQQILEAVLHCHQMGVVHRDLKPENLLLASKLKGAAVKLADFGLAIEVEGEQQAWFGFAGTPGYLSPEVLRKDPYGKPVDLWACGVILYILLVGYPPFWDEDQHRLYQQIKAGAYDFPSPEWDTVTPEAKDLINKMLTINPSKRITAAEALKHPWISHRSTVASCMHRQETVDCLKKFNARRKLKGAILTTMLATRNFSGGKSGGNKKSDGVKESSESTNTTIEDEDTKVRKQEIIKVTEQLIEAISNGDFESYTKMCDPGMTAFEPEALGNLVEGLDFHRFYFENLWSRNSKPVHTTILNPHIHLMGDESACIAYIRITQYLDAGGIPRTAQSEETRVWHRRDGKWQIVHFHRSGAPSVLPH

CDK2 = CDK2 (Homo sapiens, UniProt P24941); assay: Kinase spectrum assay (ADP-Glo); settings: remaining enzyme activity at 1 μm compound
CLK3 = CLK3 (Homo sapiens, UniProt P49761); assay: Kinase spectrum assay (ADP-Glo); settings: remaining enzyme activity at 1 μm compound
JNK1 = JNK1 (Homo sapiens, UniProt P45983); assay: Kinase spectrum assay (ADP-Glo); settings: remaining enzyme activity at 1 μm compound
ERK2 = ERK2 (Homo sapiens, UniProt P28482); assay: Kinase spectrum assay (ADP-Glo); settings: remaining enzyme activity at 1 μm compound
Sequence of ERK2 (P28482 whole entry): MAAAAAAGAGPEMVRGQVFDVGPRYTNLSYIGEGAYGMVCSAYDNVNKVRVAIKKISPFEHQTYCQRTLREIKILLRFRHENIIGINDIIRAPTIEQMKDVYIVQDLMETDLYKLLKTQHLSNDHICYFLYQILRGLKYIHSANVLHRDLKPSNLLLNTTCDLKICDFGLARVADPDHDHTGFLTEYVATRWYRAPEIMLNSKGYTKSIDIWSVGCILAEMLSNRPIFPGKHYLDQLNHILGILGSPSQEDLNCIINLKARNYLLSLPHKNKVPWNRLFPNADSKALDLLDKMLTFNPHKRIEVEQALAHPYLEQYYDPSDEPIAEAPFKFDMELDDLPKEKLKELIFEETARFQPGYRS

GSK3β = GSK3β (Homo sapiens, UniProt P49841); assay: Kinase spectrum assay (ADP-Glo); settings: remaining enzyme activity at 1 μm compound
IRAK4 = IRAK4 (Homo sapiens, UniProt Q9NWZ3); assay: Kinase spectrum assay (ADP-Glo); settings: remaining enzyme activity at 1 μm compound
B-raf = B-raf (Homo sapiens, UniProt P15056); assay: Kinase spectrum assay (ADP-Glo); settings: remaining enzyme activity at 1 μm compound
other protein kinases = assay: Kinase spectrum assay (ADP-Glo), text summary for kinases other than EGFR; settings: all panel kinases other than EGFR, at 1.0 μm compound

T1 sequence (P00533 25-1210): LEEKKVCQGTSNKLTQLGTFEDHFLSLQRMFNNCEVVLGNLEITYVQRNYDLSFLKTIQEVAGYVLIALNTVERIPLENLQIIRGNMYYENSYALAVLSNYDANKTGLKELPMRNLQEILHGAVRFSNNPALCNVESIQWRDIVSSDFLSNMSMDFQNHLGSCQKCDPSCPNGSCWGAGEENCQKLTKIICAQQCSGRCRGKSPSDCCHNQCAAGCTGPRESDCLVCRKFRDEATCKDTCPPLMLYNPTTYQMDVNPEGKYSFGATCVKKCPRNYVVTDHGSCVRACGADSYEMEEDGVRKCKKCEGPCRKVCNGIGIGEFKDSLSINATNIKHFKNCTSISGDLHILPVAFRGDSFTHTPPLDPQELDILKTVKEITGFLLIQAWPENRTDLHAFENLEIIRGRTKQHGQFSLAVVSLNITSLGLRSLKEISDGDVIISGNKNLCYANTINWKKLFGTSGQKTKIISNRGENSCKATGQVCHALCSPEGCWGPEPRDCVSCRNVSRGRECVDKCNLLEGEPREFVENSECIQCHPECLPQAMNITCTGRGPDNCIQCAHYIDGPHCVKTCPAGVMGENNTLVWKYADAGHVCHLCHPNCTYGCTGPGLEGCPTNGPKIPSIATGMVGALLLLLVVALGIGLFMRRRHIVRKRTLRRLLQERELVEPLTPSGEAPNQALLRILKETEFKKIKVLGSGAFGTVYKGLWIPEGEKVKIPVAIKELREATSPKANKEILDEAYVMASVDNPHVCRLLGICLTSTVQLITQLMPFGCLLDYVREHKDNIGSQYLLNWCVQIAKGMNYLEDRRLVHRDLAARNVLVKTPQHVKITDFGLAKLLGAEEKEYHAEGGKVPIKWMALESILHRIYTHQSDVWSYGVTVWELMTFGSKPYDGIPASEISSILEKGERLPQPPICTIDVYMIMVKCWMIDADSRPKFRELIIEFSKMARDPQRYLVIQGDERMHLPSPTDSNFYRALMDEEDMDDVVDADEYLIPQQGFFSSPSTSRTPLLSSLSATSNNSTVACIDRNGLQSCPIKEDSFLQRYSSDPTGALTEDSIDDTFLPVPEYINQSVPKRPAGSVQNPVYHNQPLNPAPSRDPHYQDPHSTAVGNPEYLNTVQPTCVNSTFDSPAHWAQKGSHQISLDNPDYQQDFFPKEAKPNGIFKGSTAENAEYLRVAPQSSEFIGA

O=C(Nc1ccc(Cl)c(C(F)(F)F)c1)Nc1ccc2ncnc(Nc3cccc(Br)c3)c2c1 [Compound 7i]
IC50 (EGFR; ADP-Glo, mean ± SD of at least two independent experiments, read-out: Enzymatic inhibition IC50 (nM) EGFR): 17.3 ± 0.54 nM
Enzyme activity % EGFR (EGFR; remaining enzyme activity at 1 μm compound): 10.52 ± 0.26%
aqueous solubility (Aqueous solubility): soluble
melting point: 268 to 268.9 °C
Enzyme activity % Abl (Abl): 94.51 ± 0.41%
Enzyme activity % Csk (Csk): 93.76 ± 4.09%
Enzyme activity % FAK (FAK): 81.70 ± 2.75%
Enzyme activity % FGFR2 (FGFR2): 91.07 ± 8.02%
Enzyme activity % HER4 (HER4): 76.85 ± 0.33%
Enzyme activity % LCK (LCK): 86.84 ± 6.53%
Enzyme activity % SRC (SRC): 72.10 ± 1.83%
Enzyme activity % Syk (Syk): 101.13 ± 9.99%
Enzyme activity % TRKA (TRKA): 83.52 ± 3.13%
Enzyme activity % FLT3 (FLT3): 92.18 ± 15.36%
Enzyme activity % KDR (KDR): 79.66 ± 2.00%
Enzyme activity % JAK3 (JAK3): 82.49 ± 1.82%
Enzyme activity % NIK (NIK): 76.97 ± 5.84%
Enzyme activity % ASK1 (ASK1): 62.27 ± 3.02%
Enzyme activity % PKCa (PKCa): 77.27 ± 1.18%
Enzyme activity % ROCK1 (ROCK1): 78.70 ± 4.00%
Enzyme activity % PDK1 (PDK1): 74.18 ± 0.62%
Enzyme activity % PKACα (PKACα): 86.02 ± 3.75%
Enzyme activity % Chk1 (Chk1): 75.98 ± 6.72%
Enzyme activity % MAPKAPK2 (MAPKAPK2): 86.46 ± 7.38%
Enzyme activity % MELK (MELK): 78.83 ± 6.55%
Enzyme activity % CAMK2α (CAMK2α): 72.67 ± 2.92%
Enzyme activity % CDK2 (CDK2): 77.40 ± 6.84%
Enzyme activity % CLK3 (CLK3): 86.80 ± 1.90%
Enzyme activity % JNK1 (JNK1): 89.43 ± 2.48%
Enzyme activity % ERK2 (ERK2): 97.31 ± 11.84%
Enzyme activity % GSK3β (GSK3β): 103.71 ± 1.75%
Enzyme activity % IRAK4 (IRAK4): 86.33 ± 0.56%
Enzyme activity % B-raf (B-raf): 96.68 ± 4.29%
enzyme activity of the other protein kinases (other protein kinases): > 50%
